Values quoted from earlier work in PMC10017685 (Nature Communications, 2023).

Tested on: human erythrocytes
Set-up: method as in DBAASP
Conditions: cited from earlier work

Sequence | Class (dedicated toxicity dataset used for toxicity classifier evaluation)
GIMSSLMKKLAKIIKK [DBAASP_8903] | 0
GIMSSLMKKLKKIIAK [DBAASP_8901] | 0
GIMSSLMKKLKKIIKK [DBAASP_8904] | 0
GKWKKILGKLIR [DBAASP_3277] | 0
GLLKKIKWLL [DBAASP_7430] | 0
GLLKKLLKKLLKKL [DBAASP_13973] | 1

Same assay, conditions: toxicity class label 1 or 0, meaning of the labels not given; DBAASP HC50 data, human erythrocytes; ref DBAASP; cited from earlier work

Sequence | Class (dedicated toxicity dataset used for toxicity classifier evaluation)
GIMSSLMKKLKAHIAK [DBAASP_8894] | 0
GIMSSLMKKLKKHIAK [DBAASP_8897] | 0
GIWDTIKSMGKVFAGAILQNL [DBAASP_700] | 1
GIWDTIKSMGKVFAGKIKQNL [DBAASP_702] | 0
GIWDTIKSMGKVFAGLILQNL [DBAASP_701] | 1
GIWKTIKSMGKVFAGAIKQNL [DBAASP_705] | 0
GIWKTIKSMGKVFAGAILQNL [DBAASP_704] | 0
GIWKTIKSMGKVFAGKIKQNL [DBAASP_703] | 0
GIWKTIKSMGKVFAGKILQNL [DBAASP_699] | 0
GIWSSLLKKLKKIIAK [DBAASP_8911] | 0
GKLGPLLKIAAKVGSKLL [DBAASP_11238] | 0
GKLGPLLKIAAKVGSNLL [DBAASP_11237] | 0
GKLSSLWKKLKKIIAK [DBAASP_8915] | 0
GLASTIGSLLGKFAKGGAQAFLQPK [DBAASP_2288] | 0
GLFDIIKKIAESF [DBAASP_779] | 0
GLFDIWAWWRWRR [DBAASP_10051] | 0
GLFDIWKKLRWRR [DBAASP_10054] | 0
GLFDIWKKWRWRR [DBAASP_10053] | 0
GLFDIWKWWRWRR [DBAASP_10052] | 0
GLFDKWAWWRWRR [DBAASP_10050] | 0
GLFDVIKKLLKKIGGL [DBAASP_8593] | 1
GLFDVIKKLLKKIKGL [DBAASP_8594] | 1
GLFDVIKKVASVIGGL [DBAASP_1320] | 0
GLFDVIKKVLKKIGGL [DBAASP_8592] | 1

Sequence | Class (dedicated toxicity dataset used for toxicity classifier evaluation)
GLFGKILGVGKKVLCGLSGMC [DBAASP_2198] | 0
GLGSVLGKALKIGANLL [DBAASP_3821] | 0
GLKALKKVFKGIHKAIKLINKHVK [DBAASP_6932] | 0
GLKALKKVFKGIHKAIKLINKHVQ [DBAASP_6931] | 0
GLKALKKVFKGIHKAIKLINNHVQ [DBAASP_6929] | 0
GLKALKKVFQGIHEAIKLINNHVQ [DBAASP_6923] | 0
GLKALKKVFQGIHKAIKLINNHVQ [DBAASP_6928] | 0
GLKEVAHSAKKFAKGFISGLTGS [DBAASP_5713] | 0
GLKGLLGKALKGIGKHIGKAQGC [DBAASP_6808] | 0
GLKKIFKAGLGSLKKGIAAHVAS [DBAASP_4412] | 0
GLKKIFKAGLGSLVKGIAAHVAS [DBAASP_4408] | 0
GLKKIFKAGLGSLVKGIAAHVAS [DBAASP_4416] | 1
GLKKIFKAGLGSLVKGIKAHVAS [DBAASP_4414] | 0
GLKKIFKKGLGSLVKGIAAHVAS [DBAASP_4410] | 0
GLKLLLSLGLKLL [DBAASP_13848] | 0
GLLDFFKGAGKELLTHLASQI [DBAASP_16390] | 0
GLLDLLKGAGKGLLTHLASQI [DBAASP_16389] | 0
GLLDLLKLLLKAAG [DBAASP_12756] | 0
GLLDTLKGAAKNVVGSLASKVMEKL [DBAASP_4394] | 0
GLLGKLLKIAAKVGKKLL [DBAASP_4927] | 1
GLLGKLLKIAAKVGSNLL [DBAASP_4922] | 1
GLLGLLGSVVSHVVPAIVGHF [DBAASP_2298] | 1
GLLGPLLKIAAKVGKKLL [DBAASP_4925] | 0
GLLGPLLKIAAKVGKNLL [DBAASP_4924] | 0

Sequence | Class (dedicated toxicity dataset used for toxicity classifier evaluation)
GLLGPLLKIAAKVGSKLL [DBAASP_4926] | 0
GLLGPLLKIAAKVGSNLL [DBAASP_3157] | 0
GLLGPLLKIAKKVGSNLL [DBAASP_4923] | 0
GLLKAIKTLL [DBAASP_3121] | 0
GLLKFIKTLL [DBAASP_3138] | 0
GLLKIIKTLL [DBAASP_3137] | 1
GLLKKIKKLL [DBAASP_7429] | 0
GLLKKIKTLL [DBAASP_3141] | 0
GLLKKLLKIAAKVGKKLL [DBAASP_4928] | 1
GLLKLIKTLL [DBAASP_3136] | 1
GLLKPLLKIAAKVGSNLL [DBAASP_2279] | 0
GLLKRIATLL [DBAASP_3123] | 0
GLLKRIKALL [DBAASP_3124] | 0
GLLKRIKFLL [DBAASP_3145] | 0
GLLKRIKILL [DBAASP_3144] | 0
GLLKRIKKLL [DBAASP_3148] | 0
GLLKRIKKLLKKIKKLL [DBAASP_8595] | 1
GLLKRIKLLL [DBAASP_3143] | 0
GLLKRIKNLL [DBAASP_3146] | 0
GLLKRIKSLL [DBAASP_8600] | 0
GLLKRIKT [DBAASP_13874] | 0
GLLKRIKTL [DBAASP_13873] | 1
GLLKRIKTLL [DBAASP_3116] | 0
GLLKRIKTLL [DBAASP_7447] | 1

Sequence | Class (dedicated toxicity dataset used for toxicity classifier evaluation)
GLLKRIKVLL [DBAASP_3142] | 0
GLLKRIKWLL [DBAASP_3147] | 0
GLLKVIKTLL [DBAASP_3135] | 0
GLLKVIKVLL [DBAASP_3150] | 1
GLLKWIKTLL [DBAASP_3140] | 1
GLLRASSKWGRKYYVDLAGCAKA [DBAASP_12529] | 0
GLLRASSVWGRKYYVDLAGCAKA [DBAASP_1639] | 0
GLLSNVAGLLKQFAKGGVNAVLNPK [DBAASP_5717] | 0
GLLSRIKTLL [DBAASP_8598] | 0
GLLTRIKTLL [DBAASP_8596] | 0
GLMKRIKTML [DBAASP_8625] | 0
GLNAFKKVFQGIHEAIKLINNHVQ [DBAASP_6933] | 0
GLNALKKFFQGIHEAIKLINNHVQ [DBAASP_6934] | 0
GLNALKKVFKGIHEAIKLINNHVQ [DBAASP_6924] | 0
GLNALKKVFQGFHEAIKLINNHVQ [DBAASP_6935] | 0
GLNALKKVFQGIHEAFKLINNHVQ [DBAASP_6936] | 0
GLNALKKVFQGIHEAIKLFNNHVQ [DBAASP_6937] | 0
GLNALKKVFQGIHEAIKLINKHVQ [DBAASP_6926] | 0
GLNALKKVFQGIHEAIKLINNHVK [DBAASP_6927] | 0
GLNALKKVFQGIHEAIKLINNHVQ [DBAASP_3355] | 0
GLNALKKVFQGIHKAIKLINNHVQ [DBAASP_6925] | 0
GLVGTLLGHIGKAILG [DBAASP_5369] | 0
GLVGTLLGHIGKAILS [DBAASP_5370] | 0
